From PMC3548404 (Nature, 2010)

Key:
AtSLAC1 [1] = target: T1, AtSLAC1 (Arabidopsis thaliana, UniProt Q9LD83); details: 30 mM CsCl bath, pH 5.6; permeant anion; no AtOST1
T1 sequence (Q9LD83 1-556): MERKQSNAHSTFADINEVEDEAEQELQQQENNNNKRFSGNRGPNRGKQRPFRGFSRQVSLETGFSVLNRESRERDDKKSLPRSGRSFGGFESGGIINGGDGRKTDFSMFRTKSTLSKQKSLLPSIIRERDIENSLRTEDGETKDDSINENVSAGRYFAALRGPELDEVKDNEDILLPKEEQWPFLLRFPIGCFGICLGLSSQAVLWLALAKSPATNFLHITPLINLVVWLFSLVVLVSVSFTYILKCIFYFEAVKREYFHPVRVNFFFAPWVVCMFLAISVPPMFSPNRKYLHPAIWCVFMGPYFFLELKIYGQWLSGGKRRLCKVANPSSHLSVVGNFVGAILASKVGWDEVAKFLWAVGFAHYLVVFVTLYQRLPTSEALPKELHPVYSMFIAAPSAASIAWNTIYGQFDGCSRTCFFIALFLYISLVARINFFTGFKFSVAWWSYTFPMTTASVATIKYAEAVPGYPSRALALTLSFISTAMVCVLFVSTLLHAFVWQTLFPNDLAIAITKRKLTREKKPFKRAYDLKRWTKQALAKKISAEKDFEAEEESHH

AtSLAC1 [2] = target: T1, AtSLAC1; assay: two-electrode voltage clamp, Xenopus oocytes; format: cell-based; details: 50 mM sodium salt in bath, pH 5.6; permeant anion

SMILES	chloride current at -90 mV (AtSLAC1 [1])	P[X]/P[Cl] (AtSLAC1 [2])
Cl [chloride]	We observed modest-sized chloride currents with wild-type AtSLAC1 cRNA	
O=[N+]([O-])O [nitrate]		selective among anions, with greater permeability for nitrate than for chloride
